Source: publication PMC7044277 (Nature Communications, 2020)
Where “and” joins values, the source holds several entries; their conditions need not be identical. Equal values may be shown once.

Key:
Type in all cases: cell-based
320 non-olfactory GPCRs [1] = molecular target: T1, 320 non-olfactory GPCRs (Homo sapiens, UniProt P32245); conditions: receptor MC4R; replicate values, Fig_4g
T1 construct: expressed in transfected cells; host or cells: HTLA cells

320 non-olfactory GPCRs [2] = molecular target: T2, 320 non-olfactory GPCRs (Homo sapiens, UniProt Q8IZF7)
T2 construct: expressed in transfected cells; host or cells: HTLA cells
T2 sequence (Q8IZF7 whole entry): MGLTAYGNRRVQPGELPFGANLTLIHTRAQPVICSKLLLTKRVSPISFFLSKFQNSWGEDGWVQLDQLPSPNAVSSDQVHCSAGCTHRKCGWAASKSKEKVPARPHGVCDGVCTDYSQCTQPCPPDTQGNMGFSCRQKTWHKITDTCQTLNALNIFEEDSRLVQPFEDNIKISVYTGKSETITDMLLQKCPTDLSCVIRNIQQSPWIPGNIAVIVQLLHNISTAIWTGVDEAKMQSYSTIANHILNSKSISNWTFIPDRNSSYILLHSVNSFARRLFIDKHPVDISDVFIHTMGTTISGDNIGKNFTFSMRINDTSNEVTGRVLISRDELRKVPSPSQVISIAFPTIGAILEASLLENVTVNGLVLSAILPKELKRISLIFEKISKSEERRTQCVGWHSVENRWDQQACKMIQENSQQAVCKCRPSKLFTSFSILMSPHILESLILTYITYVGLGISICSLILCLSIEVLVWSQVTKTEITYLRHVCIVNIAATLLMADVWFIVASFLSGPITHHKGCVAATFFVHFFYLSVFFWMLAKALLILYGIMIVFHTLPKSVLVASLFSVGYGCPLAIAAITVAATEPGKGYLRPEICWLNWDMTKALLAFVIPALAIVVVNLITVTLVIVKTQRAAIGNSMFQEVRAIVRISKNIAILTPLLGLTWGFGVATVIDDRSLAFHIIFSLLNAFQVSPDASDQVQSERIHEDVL

320 non-olfactory GPCRs [3] = molecular target: T3, 320 non-olfactory GPCRs (Homo sapiens, UniProt Q8TDS5); conditions: receptor OXER1; replicate values, Fig_4g
T3 construct: expressed in transfected cells; host or cells: HTLA cells
T3 sequence (Q8TDS5 whole entry): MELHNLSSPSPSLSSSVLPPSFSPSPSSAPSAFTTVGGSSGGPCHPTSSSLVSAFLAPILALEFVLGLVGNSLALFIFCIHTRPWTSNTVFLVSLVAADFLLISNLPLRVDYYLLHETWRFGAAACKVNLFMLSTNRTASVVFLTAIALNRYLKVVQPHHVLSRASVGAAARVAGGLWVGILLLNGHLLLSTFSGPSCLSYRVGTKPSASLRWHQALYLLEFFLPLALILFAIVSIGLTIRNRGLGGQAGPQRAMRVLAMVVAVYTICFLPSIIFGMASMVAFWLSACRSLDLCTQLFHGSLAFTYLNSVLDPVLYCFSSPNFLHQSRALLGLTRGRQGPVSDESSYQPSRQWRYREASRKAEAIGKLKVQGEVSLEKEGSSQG

320 non-olfactory GPCRs [4] = molecular target: T4, 320 non-olfactory GPCRs (Homo sapiens, UniProt Q96AM1); conditions: receptor MRGPRF; replicate values, Fig_4g
T4 construct: expressed in transfected cells; host or cells: HTLA cells
T4 sequence (Q96AM1 whole entry): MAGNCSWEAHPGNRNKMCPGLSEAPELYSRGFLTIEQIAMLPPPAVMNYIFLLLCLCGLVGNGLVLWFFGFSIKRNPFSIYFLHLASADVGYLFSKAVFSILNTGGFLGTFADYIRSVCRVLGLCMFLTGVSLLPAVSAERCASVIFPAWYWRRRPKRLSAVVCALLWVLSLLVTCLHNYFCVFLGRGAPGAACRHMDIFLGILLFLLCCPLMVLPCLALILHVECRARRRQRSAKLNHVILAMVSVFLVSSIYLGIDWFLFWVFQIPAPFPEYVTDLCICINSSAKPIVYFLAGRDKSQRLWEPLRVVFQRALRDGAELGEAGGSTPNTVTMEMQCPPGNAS
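For Fold of Basal in this document: compound tested at 1 µM final concentration.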
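For GPCRome agonism screen response in this document: fold over basal response of each receptor without drug.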

T1 sequence (P32245 whole entry): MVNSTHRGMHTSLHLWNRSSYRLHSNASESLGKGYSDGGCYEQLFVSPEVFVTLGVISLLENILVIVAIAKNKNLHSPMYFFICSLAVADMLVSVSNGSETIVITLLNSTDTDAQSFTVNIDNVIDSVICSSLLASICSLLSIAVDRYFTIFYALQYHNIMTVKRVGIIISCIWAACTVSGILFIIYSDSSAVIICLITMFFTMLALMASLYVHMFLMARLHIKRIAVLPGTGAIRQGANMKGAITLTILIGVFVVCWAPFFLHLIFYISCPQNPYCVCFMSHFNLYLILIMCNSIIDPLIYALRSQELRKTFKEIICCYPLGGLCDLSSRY

`CCOc1cccc2cc(C(C)NCC3(O)CCCCC3)oc12` (stereo not shown) [O4LE6] was tested. Which “GPCRome agonism screen response” value (320 non-olfactory GPCRs [1]) did it give?
Its value is 0.7124 and 0.7559 and 1.4135 and 1.293.

What about the “Fold of Basal” value (320 non-olfactory GPCRs [2]) of the same compound?
The value was 0.7426 and 0.9005 and 0.7298 and 0.9165.

And the “GPCRome agonism screen response” value (320 non-olfactory GPCRs [3])?
Its value is 0.5177 and 0.9727 and 1.432 and 1.135.

And the “GPCRome agonism screen response” value (320 non-olfactory GPCRs [4])?
The value was 0.9496 and 0.9687 and 0.9252 and 0.5763.
